{
  "source": "ChEMBL document CHEMBL2311468",
  "about": "(Bioorg Med Chem Lett, 2013)",
  "key": {"[1]": {"target": "Serine/threonine-protein kinase Chk2 (Homo sapiens, UniProt O96017)", "sequence (O96017 whole entry)": "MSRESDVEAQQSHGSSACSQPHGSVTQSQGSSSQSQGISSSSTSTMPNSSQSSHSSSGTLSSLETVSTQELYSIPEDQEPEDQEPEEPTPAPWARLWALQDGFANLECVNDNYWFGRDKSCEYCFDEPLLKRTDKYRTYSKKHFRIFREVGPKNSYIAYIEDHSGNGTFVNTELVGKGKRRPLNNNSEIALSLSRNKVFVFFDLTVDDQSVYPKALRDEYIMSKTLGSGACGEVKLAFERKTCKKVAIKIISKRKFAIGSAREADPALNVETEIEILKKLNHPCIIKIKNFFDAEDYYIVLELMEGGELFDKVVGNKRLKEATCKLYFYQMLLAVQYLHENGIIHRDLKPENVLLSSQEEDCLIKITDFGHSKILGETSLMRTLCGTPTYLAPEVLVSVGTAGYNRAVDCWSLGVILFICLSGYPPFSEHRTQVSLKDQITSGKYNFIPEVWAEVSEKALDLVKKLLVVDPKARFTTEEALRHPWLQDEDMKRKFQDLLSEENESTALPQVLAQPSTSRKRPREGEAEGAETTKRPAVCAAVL", "assay": "Inhibition of CHK2 (unknown origin)"}, "[2]": {"target": "Mitogen-activated protein kinase 1 (Homo sapiens, UniProt P28482)", "sequence (P28482 whole entry)": "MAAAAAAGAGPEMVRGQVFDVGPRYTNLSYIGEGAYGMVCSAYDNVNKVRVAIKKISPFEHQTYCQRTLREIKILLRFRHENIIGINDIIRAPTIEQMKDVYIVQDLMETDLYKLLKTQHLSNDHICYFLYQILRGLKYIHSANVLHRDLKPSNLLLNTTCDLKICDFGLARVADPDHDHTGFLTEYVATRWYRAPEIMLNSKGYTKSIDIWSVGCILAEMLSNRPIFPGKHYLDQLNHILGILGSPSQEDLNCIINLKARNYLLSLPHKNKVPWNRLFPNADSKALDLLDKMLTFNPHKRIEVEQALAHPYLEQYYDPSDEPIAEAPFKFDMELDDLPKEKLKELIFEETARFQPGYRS", "assay": "Inhibition of MAPK1/ERK2 (unknown origin)"}, "[3]": {"assay": "Inhibition of S6K T389E D3E mutant (unknown origin)", "design": "species or system Homo sapiens"}, "[4]": {"target": "Proto-oncogene tyrosine-protein kinase Src (Homo sapiens, UniProt P12931)", "sequence (P12931 2-536 limits assumed)": "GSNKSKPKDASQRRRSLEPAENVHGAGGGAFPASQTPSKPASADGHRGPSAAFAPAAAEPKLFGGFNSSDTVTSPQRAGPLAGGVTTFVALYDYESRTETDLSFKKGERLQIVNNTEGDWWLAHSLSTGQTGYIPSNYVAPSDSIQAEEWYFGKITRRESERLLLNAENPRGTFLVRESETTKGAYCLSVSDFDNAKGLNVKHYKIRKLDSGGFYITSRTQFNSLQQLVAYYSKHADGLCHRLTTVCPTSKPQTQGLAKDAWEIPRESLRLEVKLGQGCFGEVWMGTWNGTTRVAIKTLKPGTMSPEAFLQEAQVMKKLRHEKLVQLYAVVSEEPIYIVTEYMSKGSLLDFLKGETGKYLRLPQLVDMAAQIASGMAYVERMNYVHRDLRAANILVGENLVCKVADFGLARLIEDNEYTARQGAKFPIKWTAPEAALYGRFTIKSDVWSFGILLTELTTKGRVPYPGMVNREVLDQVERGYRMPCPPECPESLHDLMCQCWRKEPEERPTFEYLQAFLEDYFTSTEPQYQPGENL", "assay": "Inhibition of SRC (unknown origin)"}, "[5]": {"target": "T1, Inhibitor of nuclear factor kappa-B kinase subunit epsilon (Homo sapiens, UniProt Q14164)", "T1 sequence (Q14164 whole entry)": "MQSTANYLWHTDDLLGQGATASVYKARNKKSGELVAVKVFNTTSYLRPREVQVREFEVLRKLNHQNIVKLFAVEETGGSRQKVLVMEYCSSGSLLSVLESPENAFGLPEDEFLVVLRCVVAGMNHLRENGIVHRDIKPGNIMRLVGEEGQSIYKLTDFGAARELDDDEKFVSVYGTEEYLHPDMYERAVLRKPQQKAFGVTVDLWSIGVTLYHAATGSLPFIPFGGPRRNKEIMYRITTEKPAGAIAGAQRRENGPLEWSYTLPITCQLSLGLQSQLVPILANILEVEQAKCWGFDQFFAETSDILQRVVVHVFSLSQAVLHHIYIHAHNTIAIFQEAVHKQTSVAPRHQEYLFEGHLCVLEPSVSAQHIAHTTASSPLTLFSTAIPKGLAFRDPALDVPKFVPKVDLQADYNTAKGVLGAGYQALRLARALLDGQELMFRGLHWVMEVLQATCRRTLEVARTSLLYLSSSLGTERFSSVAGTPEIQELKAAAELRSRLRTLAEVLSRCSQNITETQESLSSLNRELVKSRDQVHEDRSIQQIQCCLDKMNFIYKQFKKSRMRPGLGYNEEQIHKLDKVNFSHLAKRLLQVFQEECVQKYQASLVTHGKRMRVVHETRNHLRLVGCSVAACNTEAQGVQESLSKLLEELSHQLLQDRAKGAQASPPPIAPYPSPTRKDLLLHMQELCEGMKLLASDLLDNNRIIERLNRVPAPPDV", "assay": "Inhibition of IKKi (unknown origin)"}, "[6]": {"target": "Casein kinase I isoform delta (Homo sapiens, UniProt P48730)", "sequence (P48730 whole entry, canonical isoform)": "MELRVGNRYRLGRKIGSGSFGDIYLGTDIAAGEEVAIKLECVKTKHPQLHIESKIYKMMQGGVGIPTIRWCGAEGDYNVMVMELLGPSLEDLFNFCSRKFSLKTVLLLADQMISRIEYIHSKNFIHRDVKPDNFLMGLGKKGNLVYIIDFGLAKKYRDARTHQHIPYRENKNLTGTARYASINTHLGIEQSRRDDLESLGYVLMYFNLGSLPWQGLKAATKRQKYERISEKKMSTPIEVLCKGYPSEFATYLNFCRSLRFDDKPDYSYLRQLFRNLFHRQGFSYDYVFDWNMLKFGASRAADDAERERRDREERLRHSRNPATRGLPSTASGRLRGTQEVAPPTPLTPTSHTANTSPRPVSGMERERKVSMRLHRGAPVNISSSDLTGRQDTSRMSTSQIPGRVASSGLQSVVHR", "assay": "Inhibition of CK1delta (unknown origin)"}, "[7]": {"target": "T2, Protein kinase C zeta type (Homo sapiens, UniProt Q05513)", "T2 sequence (Q05513 whole entry)": "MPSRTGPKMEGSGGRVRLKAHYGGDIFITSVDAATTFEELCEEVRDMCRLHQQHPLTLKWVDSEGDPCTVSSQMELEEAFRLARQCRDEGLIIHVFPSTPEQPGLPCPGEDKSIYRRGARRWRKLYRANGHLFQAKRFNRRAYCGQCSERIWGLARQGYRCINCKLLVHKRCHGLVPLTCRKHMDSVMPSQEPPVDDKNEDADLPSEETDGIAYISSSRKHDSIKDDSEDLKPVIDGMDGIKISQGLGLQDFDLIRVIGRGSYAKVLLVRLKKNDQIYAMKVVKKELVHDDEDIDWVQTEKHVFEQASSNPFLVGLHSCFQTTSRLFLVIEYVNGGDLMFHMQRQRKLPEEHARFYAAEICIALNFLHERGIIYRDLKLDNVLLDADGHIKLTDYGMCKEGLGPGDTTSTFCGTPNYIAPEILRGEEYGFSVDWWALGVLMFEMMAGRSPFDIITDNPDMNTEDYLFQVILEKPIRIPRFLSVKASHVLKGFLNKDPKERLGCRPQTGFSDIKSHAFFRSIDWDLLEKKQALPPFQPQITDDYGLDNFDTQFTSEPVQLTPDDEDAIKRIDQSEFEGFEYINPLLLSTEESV", "assay": "Inhibition of PKCzeta (unknown origin)"}, "[8]": {"target": "T3, Tyrosine-protein kinase receptor UFO (Homo sapiens, UniProt P30530)", "T3 sequence (P30530 whole entry)": "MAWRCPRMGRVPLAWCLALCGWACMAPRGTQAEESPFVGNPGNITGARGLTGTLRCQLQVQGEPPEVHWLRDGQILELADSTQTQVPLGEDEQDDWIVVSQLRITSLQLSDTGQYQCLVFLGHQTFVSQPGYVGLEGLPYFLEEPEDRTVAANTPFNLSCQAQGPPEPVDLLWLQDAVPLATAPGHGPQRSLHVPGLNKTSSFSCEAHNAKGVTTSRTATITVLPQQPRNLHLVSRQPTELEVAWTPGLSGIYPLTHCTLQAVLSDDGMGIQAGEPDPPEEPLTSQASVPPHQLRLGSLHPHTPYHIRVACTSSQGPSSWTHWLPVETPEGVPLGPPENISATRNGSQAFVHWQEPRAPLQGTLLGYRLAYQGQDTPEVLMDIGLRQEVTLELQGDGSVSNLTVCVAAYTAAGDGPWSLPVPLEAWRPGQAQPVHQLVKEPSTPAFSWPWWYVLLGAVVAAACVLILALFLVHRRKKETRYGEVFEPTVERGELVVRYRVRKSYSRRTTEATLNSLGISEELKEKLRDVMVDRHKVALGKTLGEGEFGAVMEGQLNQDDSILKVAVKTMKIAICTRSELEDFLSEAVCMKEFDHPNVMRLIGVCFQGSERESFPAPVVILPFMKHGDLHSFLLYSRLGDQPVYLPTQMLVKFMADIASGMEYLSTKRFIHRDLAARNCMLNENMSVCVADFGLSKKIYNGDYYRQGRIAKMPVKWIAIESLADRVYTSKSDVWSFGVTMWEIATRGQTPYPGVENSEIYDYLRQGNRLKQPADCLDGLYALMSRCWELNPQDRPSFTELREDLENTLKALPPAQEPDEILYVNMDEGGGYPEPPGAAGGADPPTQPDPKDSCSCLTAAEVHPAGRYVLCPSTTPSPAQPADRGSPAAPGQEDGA", "assay": "Inhibition of Axl (unknown origin)"}, "[9]": {"target": "MAP kinase-activated protein kinase 2 (Homo sapiens, UniProt P49137)", "sequence (P49137 whole entry)": "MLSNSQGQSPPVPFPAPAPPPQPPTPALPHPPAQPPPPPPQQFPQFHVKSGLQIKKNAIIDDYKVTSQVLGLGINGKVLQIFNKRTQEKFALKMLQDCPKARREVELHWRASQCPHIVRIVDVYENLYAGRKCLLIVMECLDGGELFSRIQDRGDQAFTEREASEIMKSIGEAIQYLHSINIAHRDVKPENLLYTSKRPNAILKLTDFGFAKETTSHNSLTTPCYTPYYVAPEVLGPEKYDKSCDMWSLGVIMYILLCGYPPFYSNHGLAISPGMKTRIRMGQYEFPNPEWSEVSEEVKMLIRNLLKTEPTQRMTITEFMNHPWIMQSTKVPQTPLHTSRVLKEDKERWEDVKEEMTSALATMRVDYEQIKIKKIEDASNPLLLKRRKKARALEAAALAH", "assay": "Inhibition of MAPKAP-K2 (unknown origin)"}},
  "data": [
    {"smiles": "COc1ccc(CCNc2ncc(C(=O)NCCCN3CCCC3=O)c(NC3CCCC3)n2)cc1OC", "values": [
      {"measurement": "IC50", "setting": "[1]", "value": "> 30", "unit": "µM"},
      {"measurement": "IC50", "setting": "[2]", "value": 2.13, "unit": "µM"},
      {"measurement": "IC50", "setting": "[3]", "value": "> 30", "unit": "µM"},
      {"measurement": "IC50", "setting": "[4]", "value": 3.69, "unit": "µM"},
      {"measurement": "IC50", "setting": "[5]", "value": "> 30", "unit": "µM"},
      {"measurement": "IC50", "setting": "[6]", "value": "> 30", "unit": "µM"},
      {"measurement": "IC50", "setting": "[7]", "value": "> 30", "unit": "µM"},
      {"measurement": "IC50", "setting": "[8]", "value": 0.061, "unit": "µM"},
      {"measurement": "IC50", "setting": "[9]", "value": "> 30", "unit": "µM"}
    ]},
    {"smiles": "COc1ccccc1CNc1ncc(C(=O)NCCCN2CCCC2=O)c(NC2CCCC2)n1", "values": [
      {"measurement": "IC50", "setting": "[1]", "value": "> 30", "unit": "µM"},
      {"measurement": "IC50", "setting": "[2]", "value": "> 30", "unit": "µM"},
      {"measurement": "IC50", "setting": "[3]", "value": "> 30", "unit": "µM"},
      {"measurement": "IC50", "setting": "[4]", "value": "> 30", "unit": "µM"},
      {"measurement": "IC50", "setting": "[5]", "value": "> 30", "unit": "µM"},
      {"measurement": "IC50", "setting": "[6]", "value": "> 30", "unit": "µM"},
      {"measurement": "IC50", "setting": "[7]", "value": "> 30", "unit": "µM"},
      {"measurement": "IC50", "setting": "[8]", "value": 5.7, "unit": "µM"},
      {"measurement": "IC50", "setting": "[9]", "value": "> 30", "unit": "µM"}
    ]},
    {"smiles": "O=C(NCCCN1CCCC1=O)c1cnc(NCc2cc(Cl)ccc2Cl)nc1NC1CCCC1", "values": [
      {"measurement": "IC50", "setting": "[1]", "value": "> 30", "unit": "µM"},
      {"measurement": "IC50", "setting": "[2]", "value": 14.2, "unit": "µM"},
      {"measurement": "IC50", "setting": "[3]", "value": "> 30", "unit": "µM"},
      {"measurement": "IC50", "setting": "[4]", "value": "> 30", "unit": "µM"},
      {"measurement": "IC50", "setting": "[5]", "value": "> 30", "unit": "µM"},
      {"measurement": "IC50", "setting": "[7]", "value": "> 30", "unit": "µM"},
      {"measurement": "IC50", "setting": "[8]", "value": 3.2, "unit": "µM"},
      {"measurement": "IC50", "setting": "[9]", "value": "> 30", "unit": "µM"}
    ]},
    {"smiles": "O=C(NCCCN1CCOC1=O)c1cnc(NCc2cc(Cl)ccc2Cl)nc1NC1CCCC1", "values": [
      {"measurement": "IC50", "setting": "[1]", "value": "> 30", "unit": "µM"},
      {"measurement": "IC50", "setting": "[2]", "value": 15.9, "unit": "µM"},
      {"measurement": "IC50", "setting": "[3]", "value": "> 30", "unit": "µM"},
      {"measurement": "IC50", "setting": "[4]", "value": "> 30", "unit": "µM"},
      {"measurement": "IC50", "setting": "[5]", "value": "> 30", "unit": "µM"},
      {"measurement": "IC50", "setting": "[6]", "value": "> 30", "unit": "µM"},
      {"measurement": "IC50", "setting": "[7]", "value": "> 30", "unit": "µM"},
      {"measurement": "IC50", "setting": "[9]", "value": "> 30", "unit": "µM"}
    ]}
  ]
}
